Test results taken from ChEMBL document CHEMBL4706548, “3-Methylthiazolo[3,2-a]benzimidazole-benzenesulfonamide conjugates as novel carbonic anhydrase inhibitors endowed with anticancer activity: Design, synthesis, biological and molecular modeling studies” (Eur J Med Chem, 2020).

What was measured:
Carbonic anhydrase 9 = Carbonic anhydrase 9 (Homo sapiens, UniProt Q16790); test: Inhibition of human CA9 preincubated for 15 mins prior to testing by phenol red-based stopped-flow CO2 hydration assay
Carbonic anhydrase 1 = Carbonic anhydrase 1 (Homo sapiens, UniProt P00915); test: Inhibition of human CA1 preincubated for 15 mins prior to testing by phenol red-based stopped-flow CO2 hydration assay
Carbonic anhydrase 1, sequence (P00915 whole entry): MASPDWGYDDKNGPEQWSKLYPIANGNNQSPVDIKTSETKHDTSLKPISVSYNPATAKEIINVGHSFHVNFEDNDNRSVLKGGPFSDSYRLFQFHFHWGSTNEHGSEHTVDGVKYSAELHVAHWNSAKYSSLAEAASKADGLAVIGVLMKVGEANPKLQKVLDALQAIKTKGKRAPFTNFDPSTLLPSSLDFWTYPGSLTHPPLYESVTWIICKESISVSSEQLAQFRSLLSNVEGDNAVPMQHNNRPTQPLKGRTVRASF

MCF7 [1] = test: Antiproliferative activity against human MCF7 cells assessed as reduction in cell viability incubated for 48 hrs under chemically-induced hypoxic condition by MTT assay; details: MCF7, 48 h
MCF7 [2] = test: Induction of cell cycle arrest in human MCF7 cells assessed as decrease in G0/G1 cells at IC50 concentration incubated for 24 hrs by propidium iodide staining based flow cytometry (reference value: 52.63%); assay type: functional; design: scale not given: the % may be the effect or the level left
MDA-MB-231 [3] = test: Induction of apoptosis in human MDA-MB-231 cells assessed as late apoptotic cells at […] measured after 24 hrs by Annexin V-FITC/propidium iodide staining based flow cytometry (reference value: 0.24 %); assay type: functional; design: dose or concentration left out as unconfirmed
MCF7 [4] = test: Induction of apoptosis in human MCF7 cells assessed as necrotic cells at […] measured after 24 hrs by Annexin V-FITC/propidium iodide staining based flow cytometry (reference value: 1.15 %); assay type: functional; design: dose or concentration left out as unconfirmed
MCF7 [5] = test: Antiproliferative activity against human MCF7 cells assessed as reduction in cell viability incubated for 48 hrs under normaxic condition by MTT assay; details: MCF7, 48 h
MCF7 [6] = test: Induction of apoptosis in human MCF7 cells assessed as late apoptotic cells at […] measured after 24 hrs by Annexin V-FITC/propidium iodide staining based flow cytometry (reference value: 0.29 %); assay type: functional; design: dose or concentration left out as unconfirmed
MCF7 [7] = test: Induction of apoptosis in human MCF7 cells assessed as early apoptotic cells at […] measured after 24 hrs by Annexin V-FITC/propidium iodide staining based flow cytometry (reference value: 0.42 %); assay type: functional; design: dose or concentration left out as unconfirmed
MDA-MB-231 [8] = test: Induction of apoptosis in human MDA-MB-231 cells assessed as necrotic cells at […] measured after 24 hrs by Annexin V-FITC/propidium iodide staining based flow cytometry (reference value: 0.64 %); assay type: functional; design: dose or concentration left out as unconfirmed
MDA-MB-231 [9] = test: Antiproliferative activity against human MDA-MB-231 cells assessed as reduction in cell viability incubated for 48 hrs under chemically-induced hypoxic condition by MTT assay; details: MDA-MB-231, 48 h
MDA-MB-231 [10] = test: Antiproliferative activity against human MDA-MB-231 cells assessed as reduction in cell viability incubated for 48 hrs under normaxic condition by MTT assay; details: MDA-MB-231, 48 h
MDA-MB-231 [11] = test: Induction of cell cycle arrest in human MDA-MB-231 cells assessed as decrease in G0/G1 cells at IC50 concentration incubated for 24 hrs by propidium iodide staining based flow cytometry (reference value: 56.42%); assay type: functional; design: scale not given: the % may be the effect or the level left
MDA-MB-231 [12] = test: Induction of apoptosis in human MDA-MB-231 cells assessed as early apoptotic cells at […] measured after 24 hrs by Annexin V-FITC/propidium iodide staining based flow cytometry (reference value: 0.56 %); assay type: functional; design: dose or concentration left out as unconfirmed

For Cc1c(NC(=O)Nc2ccc(S(N)(=O)=O)cc2)sc2nc3ccccc3n12, the Ki (Carbonic anhydrase 9) was 63.3 nM.
In the case of Cc1c(C(=O)/C=C/Nc2cccc(C(=O)O)c2)sc2nc3ccccc3n12, the Ki (Carbonic anhydrase 1) is reported as greater than 10000 nM and the Ki (Carbonic anhydrase 9) is reported as 14500 nM.
Work on Cc1c(C(=O)/C=C/Nc2cccc(S(N)(=O)=O)c2)sc2nc3ccccc3n12 yielded a Ki (Carbonic anhydrase 9) of 813 nM.
With Cc1c(NC(=O)Nc2ccccc2S(N)(=O)=O)sc2nc3ccccc3n12 the Ki (Carbonic anhydrase 9) was 831 nM.
With Cc1c(NC(=O)NNC(=O)c2ccc(S(N)(=O)=O)cc2)sc2nc3ccccc3n12 the Ki (Carbonic anhydrase 9) was 53.1 nM.
For Cc1ccc(N/C=C/C(=O)c2sc3nc4ccccc4n3c2C)cc1S(N)(=O)=O, the IC50 (MCF7 [1]) was 2360 nM, the Activity (MCF7 [2]) was 34.36% and the Activity (MDA-MB-231 [3]) was 15.64%. For the same molecule, the Activity (MCF7 [4]) was 6.04%, the IC50 (MCF7 [5]) was 1510 nM and the Activity (MCF7 [6]) was 17.16%. The Activity (MCF7 [7]) was 3.71%, the Activity (MDA-MB-231 [8]) was 11.22% and the IC50 (MDA-MB-231 [9]) was 4810 nM. For the same molecule, the IC50 (MDA-MB-231 [10]) was 9370 nM, the Activity (MDA-MB-231 [11]) was 26.47% and the Activity (MDA-MB-231 [12]) was 7.21%. For the same molecule, the Ki (Carbonic anhydrase 9) was 6.2 nM.
Cc1c(NC(=O)NCCc2ccc(S(N)(=O)=O)cc2)sc2nc3ccccc3n12 gave a Ki (Carbonic anhydrase 9) of 29.7 nM.
In the case of Cc1c(C(=O)/C=C/Nc2ccc(S(N)(=O)=O)cc2)sc2nc3ccccc3n12, the Ki (Carbonic anhydrase 9) is reported as 36.6 nM.
Work on C/C(=N\NC(=O)c1ccc(S(N)(=O)=O)cc1)c1sc2nc3ccccc3n2c1C yielded an IC50 (MCF7 [1]) of 29400 nM, an IC50 (MCF7 [5]) of 20400 nM and an IC50 (MDA-MB-231 [9]) of 6790 nM. It also gave an IC50 (MDA-MB-231 [10]) of 9910 nM and a Ki (Carbonic anhydrase 9) of 5.5 nM.
Cc1c(C(=O)/C=C/NNc2ccc(S(N)(=O)=O)cc2)sc2nc3ccccc3n12 was tested, and the Ki (Carbonic anhydrase 9) was 12.3 nM.
In the case of Cc1c(C(=O)/C=C/Nc2ccccc2S(N)(=O)=O)sc2nc3ccccc3n12, the Ki (Carbonic anhydrase 9) is reported as 498 nM.
In the case of Cc1c(C(=O)/C=C/Nc2ccc(C(=O)O)cc2)sc2nc3ccccc3n12, the Ki (Carbonic anhydrase 9) is reported as 830 nM.
For Cc1c(C(=O)/C=C/NCCc2ccc(S(N)(=O)=O)cc2)sc2nc3ccccc3n12, the Ki (Carbonic anhydrase 9) was 20.5 nM.
With Cc1c(C(=O)/C=C/NCc2ccc(S(N)(=O)=O)cc2)sc2nc3ccccc3n12 the Ki (Carbonic anhydrase 9) was 55.9 nM.
Cc1c(C(=O)/C=C/NNC(=O)c2ccc(S(N)(=O)=O)cc2)sc2nc3ccccc3n12 gave an IC50 (MCF7 [1]) of 9380 nM, an IC50 (MCF7 [5]) of 8070 nM and an IC50 (MDA-MB-231 [9]) of 15200 nM. The IC50 (MDA-MB-231 [10]) was 14200 nM and the Ki (Carbonic anhydrase 9) was 9.7 nM.
Work on Cc1c(C(=O)/C=C/Nc2cc(Cl)c(S(N)(=O)=O)cc2S(N)(=O)=O)sc2nc3ccccc3n12 yielded a Ki (Carbonic anhydrase 9) of 30.8 nM.
With Cc1c(NC(=O)Nc2cccc(S(N)(=O)=O)c2)sc2nc3ccccc3n12 the Ki (Carbonic anhydrase 9) was 76.7 nM.
For C/C(=N\Nc1ccc(S(N)(=O)=O)cc1)c1sc2nc3ccccc3n2c1C, the Ki (Carbonic anhydrase 9) was 73.1 nM.
